Biological target: T1, ZAP-70 (Homo sapiens, UniProt P43403)
T1 sequence (P43403 1-619): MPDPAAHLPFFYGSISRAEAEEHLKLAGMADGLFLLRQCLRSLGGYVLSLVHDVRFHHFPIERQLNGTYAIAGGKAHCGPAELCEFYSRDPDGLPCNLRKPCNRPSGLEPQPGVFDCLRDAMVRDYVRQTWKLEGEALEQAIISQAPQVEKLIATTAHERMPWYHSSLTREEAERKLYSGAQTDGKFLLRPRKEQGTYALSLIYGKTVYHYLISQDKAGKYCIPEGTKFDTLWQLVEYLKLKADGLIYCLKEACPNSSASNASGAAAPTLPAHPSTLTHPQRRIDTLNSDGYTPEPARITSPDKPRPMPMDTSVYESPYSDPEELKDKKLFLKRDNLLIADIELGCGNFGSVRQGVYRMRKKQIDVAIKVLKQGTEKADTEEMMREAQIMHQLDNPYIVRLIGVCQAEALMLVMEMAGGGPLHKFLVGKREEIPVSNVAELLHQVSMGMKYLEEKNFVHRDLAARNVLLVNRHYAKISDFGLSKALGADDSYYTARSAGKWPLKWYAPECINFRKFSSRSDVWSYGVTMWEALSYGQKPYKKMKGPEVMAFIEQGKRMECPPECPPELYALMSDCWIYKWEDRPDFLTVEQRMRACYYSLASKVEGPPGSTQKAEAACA
Experiment: DELFIA assay (ZAP-70 kinase, phosphorylation of biotinylated poly(glu,tyr))
Assay type: biochemical
Settings: ZAP-70 DELFIA, class symbols; read-out: Activity (IC50 in vitro)
Procedure, shortened: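 3.1 nM ZAP-70 pre-incubated 10 min at room temperature with compound ([…]) and 62.5 nM biotinylated poly(glu,tyr) in 62.5 mM Mops pH 7.0, 12.5 mM MgCl2, 12.5% glycerol, 6.25% DMSO (pre-incubation concentrations); ATP added from 5 mM stock, 30 min reaction, EDTA stop. Phosphorylation read by DELFIA europium anti-phosphotyrosine fluorescence (340/615).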

Compound | IC50
O=C(c1cc(Nc2ccc3cn[nH]c3c2)nc2ccccc12)N1CCC[C@H]1CN1CCCC1 [Compound 10] | > 10 µM
CN(CCc1ccccc1)c1cc(C(=O)N2CCC[C@H]2CN2CCCC2)cc(N(C)Cc2ccccc2)n1 [Compound 364] | 1 to 10 µM
N#Cc1ccc(-c2ccc3nc(NCc4ccccc4-c4ccccc4)cc(C(=O)N4CCC[C@H]4CN4CCCC4)c3c2)cc1 [Compound 251] | > 10 µM
O=C(c1cc(CCc2cccc(F)c2)nc2ccc(-c3ccc4c(c3)OCO4)cc12)N1CCC[C@H]1CN1CCCC1 [Compound 396] | < 1 µM
N#Cc1ccc(-c2ccc3nc(NCc4ccc(C(F)(F)F)cc4F)cc(C(=O)N4CCC[C@H]4CN4CCCC4)c3c2)cc1 [Compound 240] | > 10 µM
O=C(c1cc(Sc2ccc(C(F)(F)F)cc2)nc2ccc(-c3ccc4c(c3)OCO4)cc12)N1CCC[C@H]1CN1CCCC1 [Compound 323] | > 10 µM
CN(CCO)c1cc(C(=O)N2CCC[C@H]2CN2CCCC2)c2cc(-c3ccc4c(c3)OCO4)ccc2n1 [Compound 74] | 1 to 10 µM
COC[C@H]1CCCN1c1cc(C(=O)N2CCC[C@H]2CN2CCCC2)c2cc(-c3ccc4c(c3)OCO4)ccc2n1 [Compound 328] | 1 to 10 µM
Cn1ccnc1-c1ccc2nc(NCc3ccc(C(F)(F)F)cc3)cc(C(=O)N3CCC[C@H]3CN3CCCC3)c2c1 [Compound 340] | > 10 µM
N#Cc1ccc(-c2ccc3nc(N4CCC(c5ccccc5)C4)cc(C(=O)N4CCC[C@H]4CN4CCCC4)c3c2)cc1 (some centres unmarked) [Compound 254] | > 10 µM
O=C(c1cc(NCc2ccc(C(F)(F)F)cc2)nc2ccc(-c3ncccn3)cc12)N1CCC[C@H]1CN1CCCC1 [Compound 336] | > 10 µM
COc1ccc(C#Cc2ccc3nc(NCc4ccc(C(F)(F)F)cc4)cc(C(=O)N4CCC[C@H]4CN4CCCC4)c3c2)cc1 [Compound 282] | 1 to 10 µM
O=C(c1cc(NCc2ccc(C(F)(F)F)cc2)nc2ccc(CCc3ccc(Cl)cc3)cc12)N1CCC[C@H]1CN1CCCC1 [Compound 287] | 1 to 10 µM
O=C(c1cc(NCc2ccc(C(F)(F)F)cc2)nc2ccc(-c3ccc(C(F)(F)F)cc3)cc12)N1CCC[C@H]1CN1CCCC1 [Compound 296] | 1 to 10 µM
Cc1ccccc1CNc1cc(C(=O)N2CCC[C@H]2CN2CCCC2)c2cc(-c3ccc(C#N)cc3)ccc2n1 [Compound 172] | > 10 µM
FC(F)(F)c1ccc(CNc2cc(C(=S)N3CCC[C@H]3CN3CCCC3)c3cc(-c4ccc5c(c4)OCO5)ccc3n2)cc1 [Compound 373] | 1 to 10 µM
N#Cc1ccc(-c2ccc3nc(N(Cc4ccccc4)Cc4ccccc4)cc(C(=O)N4CCC[C@H]4CN4CCCC4)c3c2)cc1 [Compound 210] | > 10 µM
CCN(Cc1ccc(C)cc1)c1cc(C(=O)N2CCC[C@H]2CN2CCCC2)c2cc(-c3ccc4c(c3)OCO4)ccc2n1 [Compound 405] | < 1 µM
N#Cc1ccc(-c2ccc3nc(NCc4cccc(OC(F)F)c4)cc(C(=O)N4CCC[C@H]4CN4CCCC4)c3c2)cc1 [Compound 319] | < 1 µM
O=C(c1cc(NCCc2c[nH]cn2)nc2ccc(-c3ccc4c(c3)OCO4)cc12)N1CCC[C@H]1CN1CCCC1 [Compound 49] | 1 to 10 µM
O=C(c1cc(NC2CC2)nc2ccccc12)N1CCC[C@H]1CN1CCCC1 [Compound 9] | > 10 µM
N#Cc1ccc(-c2ccc3nc(NCc4cccc(C(F)(F)F)c4F)cc(C(=O)N4CCC[C@H]4CN4CCCC4)c3c2)cc1 [Compound 237] | > 10 µM
Cc1ccc(CCNc2cc(C(=O)N3CCC[C@H]3CN3CCCC3)c3cc(-c4ccc(C#N)cc4)ccc3n2)cc1 [Compound 173] | > 10 µM
O=C(c1cc(NCc2ccc(C(F)(F)F)cc2)nc2ccc(-c3ccc(-c4cnco4)s3)cc12)N1CCC[C@H]1CN1CCCC1 [Compound 355] | > 10 µM

Compound | IC50
COCCN1CCN(c2cc(C(=O)N3CCC[C@H]3CN3CCCC3)c3cc(-c4ccc5c(c4)OCO5)ccc3n2)CC1 [Compound 73] | 1 to 10 µM
CC(=O)c1ccc(-c2ccc3nc(NCc4ccc(C(F)(F)F)cc4)cc(C(=O)N4CCC[C@H]4CN4CCCC4)c3c2)s1 [Compound 299] | < 1 µM
CCCCc1ccc2nc(NCc3ccc(C(F)(F)F)cc3)cc(C(=O)N3CCC[C@H]3CN3CCCC3)c2c1 [Compound 291] | > 10 µM
CS(=O)(=O)c1ccc(CNc2cc(C(=O)N3CCC[C@H]3CN3CCCC3)c3cc(-c4ccc(C#N)cc4)ccc3n2)cc1 [Compound 311] | 1 to 10 µM
COc1ccc([C@@H](C)Nc2cc(C(=O)N3CCC[C@H]3CN3CCCC3)c3cc(-c4ccc(C#N)cc4)ccc3n2)cc1 [Compound 202] | > 10 µM
O=C(c1cc(NCc2ccc(C(F)(F)F)cc2)nc2ccc(-c3ccc4c(c3)OCO4)cc12)N1CCC[C@H]1CNC1CCCC1 [Compound 358] | < 1 µM
N#Cc1ccc(-c2ccc3nc(NCc4ccccc4Br)cc(C(=O)N4CCC[C@H]4CN4CCCC4)c3c2)cc1 [Compound 181] | > 10 µM
O=C(c1cc(Cc2ccc(N3CCNCC3)cc2)nc2ccc(-c3ccc4c(c3)OCO4)cc12)N1CCCC1CN1CCCC1 (centres unmarked) [Compound 439] | < 1 µM
N#C[C@@H]1CCCN1C(=O)c1cc(NCc2ccc(C(F)(F)F)cc2)nc2ccc(-c3ccc4c(c3)OCO4)cc12 [Compound 382] | > 10 µM
N#Cc1ccc(-c2ccc3c(C(=O)N4CCC[C@H]4CN4CCCC4)cc(NCc4ccc(C(F)(F)F)cc4)nc3c2)cc1 [Compound 120] | 1 to 10 µM
N#Cc1ccc(-c2ccc3nc(NCc4ccccc4C(F)(F)F)cc(C(=O)N4CCC[C@H]4CN4CCCC4)c3c2)cc1 [Compound 164] | > 10 µM
O=C(c1cc(Cl)nc(Cl)c1)N1CCC[C@H]1CN1CCCC1 [Compound 113] | > 10 µM
N#Cc1cccc(-c2ccc3nc(NCc4ccc(C(F)(F)F)cc4)cc(C(=O)N4CCC[C@H]4CN4CCCC4)c3c2)c1 [Compound 106] | < 1 µM
O=C(c1cc(NCc2ccc(C(F)(F)F)cc2)nc2cc(-c3ccc(Cl)c(Cl)c3)ccc12)N1CCC[C@H]1CN1CCCC1 [Compound 122] | 1 to 10 µM
N#Cc1ccc(-c2ccc3nc(NCc4cccs4)cc(C(=O)N4CCC[C@H]4CN4CCCC4)c3c2)cc1 [Compound 270] | > 10 µM
CN(C)c1ccc(Nc2cc(CCc3ccc(F)cc3)nc3ccc(-c4ccc5c(c4)OCO5)cc23)cc1 [Compound 415] | > 10 µM
O=C(Nc1cc(C(=O)N2CCC[C@H]2CN2CCCC2)c2cc(-c3ccc4c(c3)OCO4)ccc2n1)c1ccccc1 [Compound 385] | 1 to 10 µM
O=C(c1cc(NCc2ccc(C(F)(F)F)cc2)nc2ccc(-c3ccc4cc[nH]c4c3)cc12)N1CCC[C@H]1CN1CCCC1 [Compound 127] | < 1 µM
O=C(c1cc(N2CCCc3ccccc32)nc2ccc(-c3ccc4c(c3)OCO4)cc12)N1CCC[C@H]1CN1CCCC1 [Compound 92] | < 1 µM
O=C(c1cc(NCc2ccc(C(F)(F)F)cc2)nc2ccc(-c3ccsc3)cc12)N1CCC[C@H]1CN1CCCC1 [Compound 294] | < 1 µM
O=C(c1cc(NCc2ccc(C(F)(F)F)cc2)nc2ccc(-c3ccc4c(c3)OCO4)cc12)N1CCCC1CCN1CCCC1 (centres unmarked) [Compound 109] | 1 to 10 µM
N#Cc1ccc(-c2ccc3nc(CCc4ccc(C(F)(F)F)cc4)cc(C(=O)N4CCC[C@H]4CN4CCCC4)c3c2)cc1 [Compound 389] | < 1 µM
C[C@@H](Nc1cc(C(=O)N2CCC[C@H]2CN2CCCC2)c2cc(-c3ccc4c(c3)OCO4)ccc2n1)c1ccc(Cl)cc1 [Compound 330] | < 1 µM

Reference: US20080119515A1, “Heterocyclic Kinase Inhibitors: Methods of Use and Synthesis” (priority 2003, published 2008)
